Consider 1 compound from patent US6428972B2, “Biochemical method to measure niacin status in a biological sample” (Niadyne, Inc., priority 1998, dated 2002).

Values joined by “and” are separate entries in the source; they are usually repeats but may differ in a detail not shown here. Equal entries are not always repeated.

The assay concerns NAD and NADP in whole blood. The settings on record: hypercholesterolemia subjects, 750 mg of niacin twice daily for two months.

Regarding `O=C(O)c1cccnc1` [niacin, pyridine 3-carboxylic acid], the Mean niacin number (pretherapy mean 175) was 665 and 665 ± 115. Moreover, the “Range observed (niacin number)” value (pretherapy range 131-242) is recorded as 517-746.
